Test results as given in patent US10624871B2, “Bismuth(III) compounds and methods thereof” (priority 2016, dated 2020).

Columns and labels:
[1] = target: T1, NDM-1 (Klebsiella pneumoniae, UniProt C7C422); experiment: IC50 enzyme inhibition assay, MER hydrolysis; assay type: biochemical; conditions: Zn2-NDM-1 50 nM, 1 h preincubation at 25° C., 100 μM MER
Excerpt: (§1) […]. The initial rate were extracted and calculated from each reaction curves.

[2] = target: VIM-2 (Escherichia coli, UniProt Q5U7L7); experiment: IC50 enzyme inhibition assay, MER hydrolysis; assay type: biochemical; conditions: Zn2-VIM-2, 1 h preincubation at 25° C., 100 μM MER
Excerpt: as §1

[3] = target: T1, NDM-1; experiment: Hydrolysis rates of meropenem by native NDM-1 and Bi-bound NDM-1; assay type: biochemical; design: unit not given here; conditions: MER hydrolysis by Bi-bound NDM-1
[4] = target: T1, NDM-1; experiment: Zn(II) displacement by Bi(III) using ICP-MS; assay type: binding; conditions: Zn2-NDM-1 20 μM incubated with CBS, 25° C., 5 hrs
Description: To monitor the replacement of Zn(II) by Bi(III), inductively-coupled plasma mass spectrometry (ICP-MS) was employed to accurately quantify ^209Bi and ^66Zn contents in various purified NDM-1 samples. Purified Zn2-NDM-1 was prepared as described previously and was dissolved in trace-metal-free ICP-MS buffer containing 50 mM HEPES, pH 7.0 through cycles of buffer washing using an Amicon Ultra-15 Centrifugal Filter Devices with 3 kDa cut-off. Zn2-NDM-1 (20 μM) was incubated with various concentrations of CBS at 25° C. for 5 hrs with mild shaking. The samples were subsequently dialyzed in ICP-MS buffer to remove unbound-metal ions and were acidified with 10% (v/v) nitric acid for 1 h with gentle heating for releasing the bound metal ions from the protein for ICP analysis. The samples were then mixed with 115In as an internal standard to reach a final concentration of 10 ppb in 1% HNO3. After calibration with the isotope standards ^209Bi, ^66Zn and ^34S from Sigma, the samples were subsequently injected into a quadrupole-based inductively coupled plasma mass spectrometer (Agilent 7500a, Agilent Technologies, CA, USA). ^209Bi, ^66Zn and ^34S isotopes abundances were determined simultaneously by integration of peak areas using the build-in software from the instrument so that ^34S abundance serves as a way for quantifying protein concentration in each sample.

[5] = system: E. coli (NDM-1+); experiment: Microdilution MIC and MBC assay, checkerboard FICI; assay type: cell-based; conditions: Bi(III) compound at 32 μg mL^−1, E. coli (NDM-1+)
[6] = system: K. pneumonia (NDM-1+); experiment: Microdilution MIC and MBC assay, FICI; assay type: cell-based; conditions: Bi(III) compound at 32 μg mL^−1, K. pneumonia (NDM-1+)
[7] = system: Rosetta (DE3) (NDM-1+) bacterial cells; experiment: Growth with other β-lactam antibiotics in presence of Bi(III) compounds; assay type: cell-based, E. coli; conditions: CEF 32 μg mL^−1; CBS 32 or Bi-NAC 16 μg mL^−1
Description: Note that evident restoration of activities of antibiotics was observed. The concentrations used in this test represent are: CBS […], Bi-NAC 16 μg mL^−1, all the antibiotics 32 μg mL^−1. Abbreviation: AMOX: amoxicillin; AMP: ampicillin; NAF: nafcillin; CEF: cefdinir.

[8] = system: E. coli (NDM-1+); experiment: Time kill assay; assay type: cell-based; conditions: combination 16 μg mL^−1 MER and 32 μg mL−1 CBS, endpoint 24 hrs
Description: Time kill assay was used to further explore the synergy between MER and Bi(III) compounds which were represented by CBS herein. In a typical assay, the concentrations of the compounds used in this test represent as follows: 16 μg mL^−1 MER, 32 μg mL−1 CBS. Bacteria were cultured for overnight and diluted 1:250 into LB broth at 37° C. for 3 hrs to reach log phase. The initial bacterial concentration was adjusted to ˜10^7 CFU mL^−1 according to standard curve. Tested compounds either alone or in combination was added to 20 mL of freshly prepared bacterial solution in a 50 ml tube, and incubate at 37° C. LB broth with no compounds served as a positive control. Aliquots of […] suspension were withdrawn after different time intervals (0, 1, 2, 4, 6, 8, and 24 hrs). Bacterial concentrations were estimated from colony counts by serial dilution in phosphate-buffered saline (PBS) and plating on LB agar. All assays were triplicated and performed three times in different days. Data from three independent experiments were averaged and plotted as log10 CFU mL^−1 versus time (h) for each time point over 24 hrs as shown in FIG. 12.

[9] = system: E. coli (NDM-1+); experiment: In vitro cell infection assay in MDCK cells; assay type: cell-based
Description: To further evaluate the antimicrobial efficacy of CBS in combination with MER, we exploited the in vitro bacterial infection model in mammalian cell. Typically, MDCK cells were cultured in minimum essential Media (MEM) supplemented with fetal bovine serum (FBS, 10%) and grown at 37° C. in the 5% CO2 humidified atmosphere for three days. The MDCK cells were then washed three times with phosphate buffer saline (PBS) solution, liberated with trypsin-EDTA (0.25%) and re-suspended by culture medium. About 500 μL of re-suspended cells were seeded in 24-well plates and incubated as described above for 48 hrs to ensure confluency, resulting in about 1.0×10^5 cells per well by typan blue assay. The freshly grown logarithmic E. coli (NDM-1^+) bacterial cells were washed with PBS for three times and re-suspended in MEM/10% FBS. The density was adjusted to 2×10^7 CFU mL^−1. Then 500 μL of bacterial suspension was added to each well and substituted for the previous MDCK culture medium. […]
For those cell-invaded bacteria experiments, the infected cells were incubated in culture medium supplemented with 100 μg mL^−1 ciprofloxacin for 1 h to remove extracellular bacteria. […] The assay was performed in triplicate, repeated three times and the results were expressed as average ±SD.

T1 sequence (C7C422 whole entry, looked up): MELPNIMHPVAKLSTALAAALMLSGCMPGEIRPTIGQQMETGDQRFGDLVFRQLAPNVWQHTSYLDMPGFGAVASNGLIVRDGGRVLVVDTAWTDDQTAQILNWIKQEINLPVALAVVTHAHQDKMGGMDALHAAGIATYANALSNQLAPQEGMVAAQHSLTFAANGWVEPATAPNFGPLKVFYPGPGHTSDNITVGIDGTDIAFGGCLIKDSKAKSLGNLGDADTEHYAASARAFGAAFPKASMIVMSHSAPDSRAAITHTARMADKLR

O=C([O-])CC([O-])(CC(=O)[O-])C(=O)[O-].O=C([O-])CC([O-])(CC(=O)[O-])C(=O)[O-].[Bi+3].[Bi+3].[K+] [Complex 10, colloidal bismuth subcitrate]
IC50 [1]: 5.83 ± 0.53 µM | IC50 [2]: 44.5 ± 3.94 µM | Vmax [3]: 0.26 ± 0.01 | Bi(III) bound to NDM-1 [4]: 0.96 equivalent | Zn(II) replaced from NDM-1 [4]: 2.13 molar equivalents | MBC of MER with Bi(III) compound [5]: 4 µg/mL | MIC of MER with Bi(III) compound [5]: 2 µg/mL | MBC of MER with Bi(III) compound [6]: 8 µg/mL | MIC of MER with Bi(III) compound [6]: 4 µg/mL | reduction of growth rate of bacterial cells, with CEF [7]: 76% | lowering of bacteria density versus single components [8]: more than 1000 fold | lowering of intracellular bacterial density compared with mere MER, cell-invaded model ([9]; MER (2×MIC) and CBS): 9.22 fold | bacterial load, cell-associated model ([9]; MER in the presence of CBS (32 μg mL^−1)): ≤ 10^4 CFU
